From patent US12138398B2, “Methods and devices for providing a stimulus to a subject to induce gamma oscillations” (Massachusetts Institute of Technology, priority 2015, dated 2024)
Entries after “also recorded” stand apart in the source; their conditions may differ.

Tests used:
CK-p25 Tg mice [1] = test: Cortical (Hoechst) and neuronal (NeuN) layer thickness in CK-p25 Tg mice; assay type: in vivo, mouse; settings: visual cortex; for thickness of V1-neuronal layer: NeuN
Procedure: A study was conducted to examine the effect of gamma exposure and/or administration in accordance with some embodiments on DNA damage and neuronal loss in the visual cortex of a subject. For the study, an inducible mouse model of p25 accumulation (i.e., a creatine kinase carboxyl-terminal fragment p25 Tg mouse (CK-p25 Tg mouse)) was used.
A study was conducted to compare groups of mice under different treatment regimens. FIG. 84 is a diagram of the groups including CK-control mice 8400, untreated CK-p25 Tg mice 8402, CK-p25 Tg mice treated with memantine (10 mg/kg daily) 8404, CK-p25 Tg mice exposed to the 40-Hz light flicker (one hour daily for 6 weeks) in accordance with some embodiments 8406, and CK-p25 Tg mice treated with memantine and also exposed to the 40-Hz light flicker 8408. Memantine is a medication used with limited success to treat severe AD by blocking NMDA receptors, thereby acting on the glutamatergic system.
Cortical layer loss was gauged using nuclear staining with Hoechst labels (i.e., blue fluorescent dyes used to stain DNA). Neuronal layer loss was gauged using NeuN, a neuronal nuclear antigen that is commonly used as a biomarker for neurons. FIG. 89 is a bar graph depicting average thickness of the V1-cortical layer in each group, and FIG. 90 is a bar graph depicting average thickness of the V1-NeuN-positive cell layer in each group.

CK-p25 Tg mice [2] = test: NeuN-positive cells (neuronal loss) in CK-p25 Tg mice; assay type: in vivo, mouse
Procedure: A study was conducted to examine the effect of gamma exposure and/or administration in accordance with some embodiments on DNA damage and neuronal loss in the visual cortex of a subject. For the study, an inducible mouse model of p25 accumulation (i.e., a creatine kinase carboxyl-terminal fragment p25 Tg mouse (CK-p25 Tg mouse)) was used. […] A study was conducted to compare groups of mice under different treatment regimens. FIG. 84 is a diagram of the groups including CK-control mice 8400, untreated CK-p25 Tg mice 8402, CK-p25 Tg mice treated with memantine (10 mg/kg daily) 8404, CK-p25 Tg mice exposed to the 40-Hz light flicker (one hour daily for 6 weeks) in accordance with some embodiments 8406, and CK-p25 Tg mice treated with memantine and also exposed to the 40-Hz light flicker 8408. Memantine is a medication used with limited success to treat severe AD by blocking NMDA receptors, thereby acting on the glutamatergic system. FIG. 98 is a bar graph comparing the amount of NeuN-positive cells as a percentage of the NeuN-positive cells in CK-control mice for the CK-control mice, untreated CK-p25 Tg mice, CK-p25 Tg mice treated with memantine, CK-p25 Tg mice exposed to the 40-Hz light flicker in accordance with some embodiments, and CK-p25 Tg mice treated with both memantine and the 40-Hz light flicker. Thus, the percentage of the CK-control mice NeuN-positive cells are 100% in the CK-control mice, but only about 80% in untreated CK-p25 Tg mice, corroborating neuronal loss in the CK-p25 Tg mouse model. […] Thus, FIG. 98 illustrates how 40-Hz visual flicker treatment in accordance with some embodiments can preserve neurons in the visual cortex.

AD patients = settings: AD subjects; cited from earlier work
CK-p25 Tg mice [3] = test: Brain weight and lateral ventricle expansion in CK-p25 Tg mice; assay type: in vivo, mouse
Procedure: A study was conducted to examine the effect of gamma exposure and/or administration in accordance with some embodiments on DNA damage and neuronal loss in the visual cortex of a subject. For the study, an inducible mouse model of p25 accumulation (i.e., a creatine kinase carboxyl-terminal fragment p25 Tg mouse (CK-p25 Tg mouse)) was used. […] A study was conducted to compare groups of mice under different treatment regimens. FIG. 84 is a diagram of the groups including CK-control mice 8400, untreated CK-p25 Tg mice 8402, CK-p25 Tg mice treated with memantine (10 mg/kg daily) 8404, CK-p25 Tg mice exposed to the 40-Hz light flicker (one hour daily for 6 weeks) in accordance with some embodiments 8406, and CK-p25 Tg mice treated with memantine and also exposed to the 40-Hz light flicker 8408. Memantine is a medication used with limited success to treat severe AD by blocking NMDA receptors, thereby acting on the glutamatergic system. […] For example, gamma exposure reduced and/or prevented CKp-25-induced loss of brain weight. FIG. 85 is bar graph comparing brain weight change in CK-control mice, untreated CK-p25 Tg mice, CK-p25 Tg mice treated with memantine, CK-p25 Tg mice exposed to the 40-Hz light flicker in accordance with some embodiments, and CK-p25 Tg mice treated with both memantine and the 40-Hz light flicker. Brain weight loss was pronounced in untreated CK-p25 Tg mice, CK-p25 Tg mice treated with memantine, and CK-p25 Tg mice treated with both memantine and the 40-Hz light flicker. However, CK-p25 Tg mice exposed to the 40-Hz light flicker in accordance with some embodiments retained more brain weight. […] For example, gamma exposure reduced and/or prevented CKp-25-induced abnormal lateral ventricle expansion in subjects. FIG. 86 is bar graph comparing fold change of lateral ventricle expansion in CK-control mice, untreated CK-p25 Tg mice, CK-p25 Tg mice treated with memantine, CK-p25 Tg mice exposed to the 40-Hz light flicker in accordance with some embodiments, and CK-p25 Tg mice treated with both memantine and the 40-Hz light flicker with expansion in the CK-control mice as a baseline. Lateral ventricle expansion was pronounced in untreated CK-p25 Tg mice, CK-p25 Tg mice treated with memantine, and CK-p25 Tg mice treated with both memantine and the 40-Hz light flicker. Lateral ventricles in CK-p25 Tg mice exposed to the 40-Hz light flicker in accordance with some embodiments expanded much less than the lateral ventricles in the other CK-p25 Tg mice.

[4] = memantine + 40-Hz light flicker
[5] = memantine alone, compared to untreated CK-p25 Tg

`CC12CC3CC(C)(C1)CC(N)(C3)C2` [memantine] gave a thickness of V1-neuronal layer (CK-p25 Tg mice [1]; [4]) of 691 ± 20 µm, a thickness of V1-neuronal layer (CK-p25 Tg mice [1]; memantine alone) of 660 ± 7 µm and a thickness of V1-cortical layer (CK-p25 Tg mice [1]; [4]) of 821 ± 22 µm. For the same compound, the thickness of V1-cortical layer (CK-p25 Tg mice [1]; memantine alone) was 788 ± 9 µm, the “neuronal loss (NeuN-positive cells) in hippocampus” value (CK-p25 Tg mice [2]; [4]) was “prevented some neuronal loss” and the “neuronal loss (NeuN-positive cells) in insular cortex” value (CK-p25 Tg mice [2]; [4]) was “prevented the least neuronal loss”. For the same compound, the “neuronal loss (NeuN-positive cells) in somatosensory cortex” value (CK-p25 Tg mice [2]; [4]) was “prevented most neuronal loss”, the “neuronal loss (NeuN-positive cells) in visual cortex” value (CK-p25 Tg mice [2]; [4]) was “failed to prevent as much neuronal loss” and the “neuronal loss (NeuN-positive cells) in hippocampus” value (CK-p25 Tg mice [2]; [5]) was “prevented some neuronal loss”. For the same compound, the “neuronal loss (NeuN-positive cells) in insular cortex” value (CK-p25 Tg mice [2]; [5]) was “prevented some neuronal loss”, the “neuronal loss (NeuN-positive cells) in somatosensory cortex” value (CK-p25 Tg mice [2]; [5]) was “failed to prevent any neuronal loss” and the “neuronal loss (NeuN-positive cells) in visual cortex” value (CK-p25 Tg mice [2]; [5]) was “prevented some neuronal loss”. The “clinical outcome on cognition” value (AD patients) was “only mild cognitive benefits”, the Brain weight loss (CK-p25 Tg mice [3]; memantine 10 mg/kg daily) was “pronounced” and the Lateral ventricle expansion (CK-p25 Tg mice [3]; memantine 10 mg/kg daily) was “pronounced; also recorded: largest”. The Brain weight loss (CK-p25 Tg mice [3]; [4]) was “pronounced” and the Lateral ventricle expansion (CK-p25 Tg mice [3]; [4]) was “pronounced; also recorded: largest”.
